# According to patent US4115541A (priority 1975, dated 1978):
# Columns and labels:
# [1] = physical; cited from earlier work
# [2] = Distribution of 99mTc-Sn-AEDP and 85Sr in rabbits, carrier effect of AEDP (Example 4); assay type: in vivo, rabbit; conditions: 2 Hrs.
# Protocol: Adult New Zealand albino rabbits having an average weight of 3.8 kg were utilized. Strontium-85 was employed as a standard for comparison. […] Each dosage is contained in a volume of 1 ml.
# The animals were sacrificed serially from 1 to 24 hours after injection and the activities in major organs were determined by counting multiple samples from each organ in a scintillation well counter (the technetium-99m counts were corrected for the Compton contributions from the strontium-85 activity in the technetium-99m energy window). Multiple samples were counted from the tibia, femur, spine and pelvic bones; the total activity in the skeleton was estimated by assuming the whole skeleton consisted of equal proportions by weight of tibia, spine, femur and pelvis and that the skeletal mass was 10% of the body weight. The red marrow was sampled from the femur and the total marrow was assumed to be 2.2% of the total body weight. Similarly, blood volume was assumed to be 7% and the skeletal muscle 43% of the body weight. The whole liver and both kidneys were weighed and multiple samples from each were counted to measure the total activity in each organ.
# In another series of experiments carried out as described in Example 2, the distribution of technetium 99m from its 99m-technetium-tin-methylene diphosphonate complex was determined in albino rabbits, again in comparison with strontium-85.
# The distribution of technetium 99m from its 99m technetium-tin-1-amino-ethane-1,1-diphosphonate complex was determined as in Example 3 and compared with the distribution of strontium-85.
molecule,measurement,setting,value
[18FH] [fluorine-18],half-life (radionuclide),[1],1.83 h
"99m technetium-tin-1-amino-ethane-1,1-diphosphonate complex [^99m Tc-Sn-AEDP]","Blood, % Dose in Whole Organ",[2]; AEDP 0.01 mg/kg,1.18 % Dose
same,"Blood, % dose/1% body weight",[2]; AEDP 0.01 mg/kg,0.168 % Dose/1% Body weight
same,"Bone Ave, % Dose/1% Body weight",[2]; AEDP 0.01 mg/kg,7.60 % Dose/1% Body weight
same,"Femur, % dose/1% body weight",[2]; AEDP 0.01 mg/kg,7.54 % Dose/1% Body weight
same,"Kidneys, % Dose in Whole Organ",[2]; AEDP 0.01 mg/kg,1.59 % Dose
same,"Kidneys, % dose/1% body weight",[2]; AEDP 0.01 mg/kg,2.72 % Dose/1% Body weight
same,"Liver, % Dose in Whole Organ",[2]; AEDP 0.01 mg/kg,1.69 % Dose
same,"Liver, % dose/1% body weight",[2]; AEDP 0.01 mg/kg,0.617 % Dose/1% Body weight
same,"Marrow, % Dose in Whole Organ",[2]; AEDP 0.01 mg/kg,0.657 % Dose
same,"Marrow, % dose/1% body weight",[2]; AEDP 0.01 mg/kg,0.300 % Dose/1% Body weight
same,"Muscle, % Dose in Whole Organ",[2]; AEDP 0.01 mg/kg,0.988 % Dose
same,"Muscle, % dose/1% body weight",[2]; AEDP 0.01 mg/kg,0.037 % Dose/1% Body weight
same,"Pelvis, % dose/1% body weight",[2]; AEDP 0.01 mg/kg,8.53 % Dose/1% Body weight
same,"Ratio of 99mTc/85Sr, Ave Bone",[2]; AEDP 0.01 mg/kg,0.735
same,"Ratio of 99mTc/85Sr, Blood",[2]; AEDP 0.01 mg/kg,0.406
same,"Ratio of 99mTc/85Sr, Femur",[2]; AEDP 0.01 mg/kg,0.720
same,"Ratio of 99mTc/85Sr, Kidney",[2]; AEDP 0.01 mg/kg,4.99
same,"Ratio of 99mTc/85Sr, Liver",[2]; AEDP 0.01 mg/kg,3.00
same,"Ratio of 99mTc/85Sr, Marrow",[2]; AEDP 0.01 mg/kg,1.27
same,"Ratio of 99mTc/85Sr, Muscle",[2]; AEDP 0.01 mg/kg,0.338
same,"Ratio of 99mTc/85Sr, Pelvis",[2]; AEDP 0.01 mg/kg,0.794
same,"Ratio of 99mTc/85Sr, Spine",[2]; AEDP 0.01 mg/kg,0.689
same,"Ratio of 99mTc/85Sr, Tibia",[2]; AEDP 0.01 mg/kg,0.710
same,"Spine, % dose/1% body weight",[2]; AEDP 0.01 mg/kg,6.20 % Dose/1% Body weight
same,Tc/Sr ratio (Table 4),[2]; AEDP 0.01 mg/kg,0.736
same,"Tibia, % dose/1% body weight",[2]; AEDP 0.01 mg/kg,8.13 % Dose/1% Body weight
same,"Urine, % Dose",[2]; AEDP 0.01 mg/kg,48.39 % Dose
same,"W. Femur, % Dose in Whole Organ",[2]; AEDP 0.01 mg/kg,2.34 % Dose
same,"W. Tibia, % Dose in Whole Organ",[2]; AEDP 0.01 mg/kg,1.96 % Dose
same,"Blood, % Dose in Whole Organ",[2]; AEDP 0.05 mg/kg,1.01 % Dose
same,"Blood, % dose/1% body weight",[2]; AEDP 0.05 mg/kg,0.144 % Dose/1% Body weight
same,"Bone Ave, % Dose/1% Body weight",[2]; AEDP 0.05 mg/kg,8.39 % Dose/1% Body weight
same,"Femur, % dose/1% body weight",[2]; AEDP 0.05 mg/kg,8.63 % Dose/1% Body weight
same,"Kidneys, % Dose in Whole Organ",[2]; AEDP 0.05 mg/kg,1.13 % Dose
same,"Kidneys, % dose/1% body weight",[2]; AEDP 0.05 mg/kg,1.83 % Dose/1% Body weight
same,"Liver, % Dose in Whole Organ",[2]; AEDP 0.05 mg/kg,0.806 % Dose
same,"Liver, % dose/1% body weight",[2]; AEDP 0.05 mg/kg,0.176 % Dose/1% Body weight
same,"Marrow, % Dose in Whole Organ",[2]; AEDP 0.05 mg/kg,0.549 % Dose
same,"Marrow, % dose/1% body weight",[2]; AEDP 0.05 mg/kg,0.250 % Dose/1% Body weight
same,"Muscle, % Dose in Whole Organ",[2]; AEDP 0.05 mg/kg,1.20 % Dose
same,"Muscle, % dose/1% body weight",[2]; AEDP 0.05 mg/kg,0.028 % Dose/1% Body weight
same,"Pelvis, % dose/1% body weight",[2]; AEDP 0.05 mg/kg,7.82 % Dose/1% Body weight
same,"Ratio of 99mTc/85Sr, Ave Bone",[2]; AEDP 0.05 mg/kg,0.683
same,"Ratio of 99mTc/85Sr, Blood",[2]; AEDP 0.05 mg/kg,0.409
same,"Ratio of 99mTc/85Sr, Femur",[2]; AEDP 0.05 mg/kg,0.687
same,"Ratio of 99mTc/85Sr, Kidney",[2]; AEDP 0.05 mg/kg,3.30
same,"Ratio of 99mTc/85Sr, Liver",[2]; AEDP 0.05 mg/kg,1.32
same,"Ratio of 99mTc/85Sr, Marrow",[2]; AEDP 0.05 mg/kg,1.18
same,"Ratio of 99mTc/85Sr, Muscle",[2]; AEDP 0.05 mg/kg,0.236
same,"Ratio of 99mTc/85Sr, Pelvis",[2]; AEDP 0.05 mg/kg,0.684
same,"Ratio of 99mTc/85Sr, Spine",[2]; AEDP 0.05 mg/kg,0.675
same,"Ratio of 99mTc/85Sr, Tibia",[2]; AEDP 0.05 mg/kg,0.681
same,"Spine, % dose/1% body weight",[2]; AEDP 0.05 mg/kg,7.80 % Dose/1% Body weight
same,Tc/Sr ratio (Table 4),[2]; AEDP 0.05 mg/kg,0.680
same,"Tibia, % dose/1% body weight",[2]; AEDP 0.05 mg/kg,9.30 % Dose/1% Body weight
same,"Urine, % Dose",[2]; AEDP 0.05 mg/kg,44.21 % Dose
same,"W. Femur, % Dose in Whole Organ",[2]; AEDP 0.05 mg/kg,2.41 % Dose
same,"W. Tibia, % Dose in Whole Organ",[2]; AEDP 0.05 mg/kg,2.14 % Dose
same,"Blood, % Dose in Whole Organ",[2]; AEDP 0.1 mg/kg,0.96 % Dose
same,"Blood, % dose/1% body weight",[2]; AEDP 0.1 mg/kg,0.137 % Dose/1% Body weight
same,"Bone Ave, % Dose/1% Body weight",[2]; AEDP 0.1 mg/kg,7.51 % Dose/1% Body weight
same,"Femur, % dose/1% body weight",[2]; AEDP 0.1 mg/kg,7.93 % Dose/1% Body weight
same,"Kidneys, % Dose in Whole Organ",[2]; AEDP 0.1 mg/kg,0.913 % Dose
same,"Kidneys, % dose/1% body weight",[2]; AEDP 0.1 mg/kg,1.28 % Dose/1% Body weight
same,"Liver, % Dose in Whole Organ",[2]; AEDP 0.1 mg/kg,0.309 % Dose
same,"Liver, % dose/1% body weight",[2]; AEDP 0.1 mg/kg,0.083 % Dose/1% Body weight
same,"Marrow, % Dose in Whole Organ",[2]; AEDP 0.1 mg/kg,0.211 % Dose
same,"Marrow, % dose/1% body weight",[2]; AEDP 0.1 mg/kg,0.096 % Dose/1% Body weight
same,"Muscle, % Dose in Whole Organ",[2]; AEDP 0.1 mg/kg,1.46 % Dose
same,"Muscle, % dose/1% body weight",[2]; AEDP 0.1 mg/kg,0.034 % Dose/1% Body weight
same,"Pelvis, % dose/1% body weight",[2]; AEDP 0.1 mg/kg,6.24 % Dose/1% Body weight
same,"Ratio of 99mTc/85Sr, Ave Bone",[2]; AEDP 0.1 mg/kg,0.716
same,"Ratio of 99mTc/85Sr, Blood",[2]; AEDP 0.1 mg/kg,0.409
same,"Ratio of 99mTc/85Sr, Femur",[2]; AEDP 0.1 mg/kg,0.714
same,"Ratio of 99mTc/85Sr, Kidney",[2]; AEDP 0.1 mg/kg,2.94
same,"Ratio of 99mTc/85Sr, Liver",[2]; AEDP 0.1 mg/kg,0.490
same,"Ratio of 99mTc/85Sr, Marrow",[2]; AEDP 0.1 mg/kg,0.621
same,"Ratio of 99mTc/85Sr, Muscle",[2]; AEDP 0.1 mg/kg,0.205
same,"Ratio of 99mTc/85Sr, Pelvis",[2]; AEDP 0.1 mg/kg,0.725
same,"Ratio of 99mTc/85Sr, Spine",[2]; AEDP 0.1 mg/kg,0.705
same,"Ratio of 99mTc/85Sr, Tibia",[2]; AEDP 0.1 mg/kg,0.721
same,"Spine, % dose/1% body weight",[2]; AEDP 0.1 mg/kg,7.36 % Dose/1% Body weight
same,Tc/Sr ratio (Table 4),[2]; AEDP 0.1 mg/kg,0.717
same,"Tibia, % dose/1% body weight",[2]; AEDP 0.1 mg/kg,8.50 % Dose/1% Body weight
same,"Urine, % Dose",[2]; AEDP 0.1 mg/kg,38.8 % Dose
same,"W. Femur, % Dose in Whole Organ",[2]; AEDP 0.1 mg/kg,2.38 % Dose
same,"W. Tibia, % Dose in Whole Organ",[2]; AEDP 0.1 mg/kg,2.18 % Dose
same,"Blood, % Dose in Whole Organ",[2]; AEDP 0.5 mg/kg,1.38 % Dose
same,"Blood, % dose/1% body weight",[2]; AEDP 0.5 mg/kg,0.197 % Dose/1% Body weight
same,"Bone Ave, % Dose/1% Body weight",[2]; AEDP 0.5 mg/kg,6.96 % Dose/1% Body weight
same,"Femur, % dose/1% body weight",[2]; AEDP 0.5 mg/kg,6.59 % Dose/1% Body weight
same,"Kidneys, % Dose in Whole Organ",[2]; AEDP 0.5 mg/kg,1.11 % Dose
same,"Kidneys, % dose/1% body weight",[2]; AEDP 0.5 mg/kg,2.11 % Dose/1% Body weight
same,"Liver, % Dose in Whole Organ",[2]; AEDP 0.5 mg/kg,0.216 % Dose
same,"Liver, % dose/1% body weight",[2]; AEDP 0.5 mg/kg,0.079 % Dose/1% Body weight
same,"Marrow, % Dose in Whole Organ",[2]; AEDP 0.5 mg/kg,0.23 % Dose
same,"Marrow, % dose/1% body weight",[2]; AEDP 0.5 mg/kg,0.104 % Dose/1% Body weight
same,"Muscle, % Dose in Whole Organ",[2]; AEDP 0.5 mg/kg,0.883 % Dose
same,"Muscle, % dose/1% body weight",[2]; AEDP 0.5 mg/kg,0.021 % Dose/1% Body weight
same,"Pelvis, % dose/1% body weight",[2]; AEDP 0.5 mg/kg,7.93 % Dose/1% Body weight
same,"Ratio of 99mTc/85Sr, Ave Bone",[2]; AEDP 0.5 mg/kg,0.644
same,"Ratio of 99mTc/85Sr, Blood",[2]; AEDP 0.5 mg/kg,0.280
same,"Ratio of 99mTc/85Sr, Femur",[2]; AEDP 0.5 mg/kg,0.628
same,"Ratio of 99mTc/85Sr, Kidney",[2]; AEDP 0.5 mg/kg,2.47
same,"Ratio of 99mTc/85Sr, Liver",[2]; AEDP 0.5 mg/kg,0.459
same,"Ratio of 99mTc/85Sr, Marrow",[2]; AEDP 0.5 mg/kg,0.500
same,"Ratio of 99mTc/85Sr, Muscle",[2]; AEDP 0.5 mg/kg,0.140
same,"Ratio of 99mTc/85Sr, Pelvis",[2]; AEDP 0.5 mg/kg,0.692
same,"Ratio of 99mTc/85Sr, Spine",[2]; AEDP 0.5 mg/kg,0.614
same,"Ratio of 99mTc/85Sr, Tibia",[2]; AEDP 0.5 mg/kg,0.632
same,"Spine, % dose/1% body weight",[2]; AEDP 0.5 mg/kg,6.05 % Dose/1% Body weight
same,Tc/Sr ratio (Table 4),[2]; AEDP 0.5 mg/kg,0.645
same,"Tibia, % dose/1% body weight",[2]; AEDP 0.5 mg/kg,7.27 % Dose/1% Body weight
same,"Urine, % Dose",[2]; AEDP 0.5 mg/kg,48.85 % Dose
same,"W. Femur, % Dose in Whole Organ",[2]; AEDP 0.5 mg/kg,1.74 % Dose
same,"W. Tibia, % Dose in Whole Organ",[2]; AEDP 0.5 mg/kg,1.55 % Dose
[99Tc] [technitium-99m],half-life (radionuclide),[1],6 h
